Reference: patent US20240300932A1, “N-PHENYLIMINE DERIVATIVE AND PREPARATION METHOD AND USE THEREOF” (Guizhou University, priority 2023, published 2024)

Tests used:
Test in all cases: Post-emergence herbicidal activity test (stem and leaf spray, pot culture)
Assay type in all cases: in vivo
Details in all cases: 3 weeks after spraying
Amaranthus retroflexus = test system: Amaranthus retroflexus
In short: (§1)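 Activity is given as a 0–5 grade of fresh weight growth control, scored three weeks after a single stem-and-leaf spray. Weeds in farmland loam were treated at the 2- to 3-leaf stage at 10, 5 and 2.5 g/mu, with methyl oleate added as synergist.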

Echinochloa crusgalli = test system: Echinochloa crusgalli
In short: as §1

Setaria viridis = test system: Setaria viridis
In short: as §1

Portulaca oleracea = test system: Portulaca oleracea
In short: as §1

Abutilon theophrasti = test system: Abutilon theophrasti
In short: as §1

Trifoliumre pensL. = test system: Trifoliumre pensL.
In short: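 Pot-grown weeds in loam (pH 7), greenhouse at 20–30 °C, sprayed once post-emergence at the 2–3-leaf stage. Compound in acetone with Tween 80 plus methyl oleate oil (1.5 L/ha), applied at 10, 5 and 2.5 g/mu by spray tower. Effect scored 3 weeks after spraying, averaged over three repeats.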

Row | Compound | Post-emergence herbicidal activity, A. retroflexus (grade) (Amaranthus retroflexus; dosage 2.5 g/mu) | Post-emergence herbicidal activity, A. retroflexus (grade) (Amaranthus retroflexus; dosage 5 g/mu) | Post-emergence herbicidal activity, A. retroflexus (grade) (Amaranthus retroflexus; dosage 10 g/mu) | Post-emergence herbicidal activity, E. crusgalli (grade) (Echinochloa crusgalli; dosage 2.5 g/mu) | Post-emergence herbicidal activity, E. crusgalli (grade) (Echinochloa crusgalli; dosage 5 g/mu) | Post-emergence herbicidal activity, E. crusgalli (grade) (Echinochloa crusgalli; dosage 10 g/mu) | Post-emergence herbicidal activity, S. viridis (grade) (Setaria viridis; dosage 2.5 g/mu) | Post-emergence herbicidal activity, S. viridis (grade) (Setaria viridis; dosage 5 g/mu) | Post-emergence herbicidal activity, S. viridis (grade) (Setaria viridis; dosage 10 g/mu) | Post-emergence herbicidal activity, P. oleracea (grade) (Portulaca oleracea; dosage 2.5 g/mu) | Post-emergence herbicidal activity, P. oleracea (grade) (Portulaca oleracea; dosage 5 g/mu) | Post-emergence herbicidal activity, P. oleracea (grade) (Portulaca oleracea; dosage 10 g/mu) | Post-emergence herbicidal activity, A. theophrasti (grade) (Abutilon theophrasti; dosage 2.5 g/mu) | Post-emergence herbicidal activity, A. theophrasti (grade) (Abutilon theophrasti; dosage 5 g/mu) | Post-emergence herbicidal activity, A. theophrasti (grade) (Abutilon theophrasti; dosage 10 g/mu) | Post-emergence herbicidal activity, Trifoliumre pensL. (grade) (Trifoliumre pensL.; dosage 2.5 g/mu) | Post-emergence herbicidal activity, Trifoliumre pensL. (grade) (Trifoliumre pensL.; dosage 5 g/mu) | Post-emergence herbicidal activity, Trifoliumre pensL. (grade) (Trifoliumre pensL.; dosage 10 g/mu)
1 | O=C1C2=C(CCCC2)C(=O)N1c1cc(OCc2nc(-c3cnc(C(F)(F)F)cc3Cl)no2)c(Cl)cc1F [Compound A10] | 5 (Grade 5: the growth control rate is greater than or equal to 85%) | 5 (Grade 5: the growth control rate is greater than or equal to 85%) | 5 (Grade 5: the growth control rate is greater than or equal to 85%) | 1 (Grade 1: the growth control rate is greater than or equal to 5% and less than 20%) | 2 (Grade 2: the growth control rate is greater than or equal to 20% and less than 40%) | 3 (Grade 3: the growth control rate is greater than or equal to 40% and less than 60%) | 2 (Grade 2: the growth control rate is greater than or equal to 20% and less than 40%) | 3 (Grade 3: the growth control rate is greater than or equal to 40% and less than 60%) | 4 (Grade 4: the growth control rate is greater than or equal to 60% and less than 85%) | 4 (Grade 4: the growth control rate is greater than or equal to 60% and less than 85%) | 5 (Grade 5: the growth control rate is greater than or equal to 85%) | 5 (Grade 5: the growth control rate is greater than or equal to 85%) | 5 (Grade 5: the growth control rate is greater than or equal to 85%) | 5 (Grade 5: the growth control rate is greater than or equal to 85%) | 5 (Grade 5: the growth control rate is greater than or equal to 85%) | 4 (Grade 4: the growth control rate is greater than or equal to 60% and less than 85%) | 5 (Grade 5: the growth control rate is greater than or equal to 85%) | 5 (Grade 5: the growth control rate is greater than or equal to 85%)
2 | O=C1C2=C(CCCC2)C(=O)N1c1cc(OCc2nc(-c3ccc(I)cc3)no2)c(Cl)cc1F [Compound A27] | 5 (Grade 5: the growth control rate is greater than or equal to 85%) | 5 (Grade 5: the growth control rate is greater than or equal to 85%) | 5 (Grade 5: the growth control rate is greater than or equal to 85%) | 1 (Grade 1: the growth control rate is greater than or equal to 5% and less than 20%) | 2 (Grade 2: the growth control rate is greater than or equal to 20% and less than 40%) | 3 (Grade 3: the growth control rate is greater than or equal to 40% and less than 60%) | 2 (Grade 2: the growth control rate is greater than or equal to 20% and less than 40%) | 3 (Grade 3: the growth control rate is greater than or equal to 40% and less than 60%) | 4 (Grade 4: the growth control rate is greater than or equal to 60% and less than 85%) | 5 (Grade 5: the growth control rate is greater than or equal to 85%) | 5 (Grade 5: the growth control rate is greater than or equal to 85%) | 5 (Grade 5: the growth control rate is greater than or equal to 85%) | 5 (Grade 5: the growth control rate is greater than or equal to 85%) | 5 (Grade 5: the growth control rate is greater than or equal to 85%) | 5 (Grade 5: the growth control rate is greater than or equal to 85%) | 5 (Grade 5: the growth control rate is greater than or equal to 85%) | 5 (Grade 5: the growth control rate is greater than or equal to 85%) | 5 (Grade 5: the growth control rate is greater than or equal to 85%)
3 | CC(C)(CCl)C(=O)Nc1cc(N2C(=O)C3=C(CCCC3)C2=O)c(F)cc1Cl [Compound D4, 3-chloro-N-(2-chloro-5-(1,3-dioxo-1,3,4,5,6,7-hexahydro-2H-isoindole-2-yl)-4-fluorophenyl)-2,2-dimethylpropionamide] |  |  | 5 (Grade 5: the growth control rate is greater than or equal to 85%) |  |  | 3 (Grade 3: the growth control rate is greater than or equal to 40% and less than 60%) |  |  | 3 (Grade 3: the growth control rate is greater than or equal to 40% and less than 60%) |  |  | 5 (Grade 5: the growth control rate is greater than or equal to 85%) |  |  | 5 (Grade 5: the growth control rate is greater than or equal to 85%) |  |  | 5 (Grade 5: the growth control rate is greater than or equal to 85%)
4 | O=C1C2=C(CCCC2)C(=O)N1c1cc(OCc2nc(-c3cccc(C(F)(F)F)c3)no2)c(Cl)cc1F [Compound A17] | 5 (Grade 5: the growth control rate is greater than or equal to 85%) | 5 (Grade 5: the growth control rate is greater than or equal to 85%) | 5 (Grade 5: the growth control rate is greater than or equal to 85%) | 1 (Grade 1: the growth control rate is greater than or equal to 5% and less than 20%) | 2 (Grade 2: the growth control rate is greater than or equal to 20% and less than 40%) | 3 (Grade 3: the growth control rate is greater than or equal to 40% and less than 60%) | 2 (Grade 2: the growth control rate is greater than or equal to 20% and less than 40%) | 3 (Grade 3: the growth control rate is greater than or equal to 40% and less than 60%) | 4 (Grade 4: the growth control rate is greater than or equal to 60% and less than 85%) | 4 (Grade 4: the growth control rate is greater than or equal to 60% and less than 85%) | 5 (Grade 5: the growth control rate is greater than or equal to 85%) | 5 (Grade 5: the growth control rate is greater than or equal to 85%) | 5 (Grade 5: the growth control rate is greater than or equal to 85%) | 5 (Grade 5: the growth control rate is greater than or equal to 85%) | 5 (Grade 5: the growth control rate is greater than or equal to 85%) | 4 (Grade 4: the growth control rate is greater than or equal to 60% and less than 85%) | 5 (Grade 5: the growth control rate is greater than or equal to 85%) | 5 (Grade 5: the growth control rate is greater than or equal to 85%)
5 | O=C(CCl)Nc1cc(N2C(=O)C3=C(CCCC3)C2=O)c(F)cc1Cl [Compound D2, 2-chloro-N-(2-chloro-5-(1,3-dioxo-1,3,4,5,6,7-hexahydro-2H-isoindole-2-yl)-4-fluorophenyl)acetamide] |  |  | 5 (Grade 5: the growth control rate is greater than or equal to 85%) |  |  | 3 (Grade 3: the growth control rate is greater than or equal to 40% and less than 60%) |  |  | 3 (Grade 3: the growth control rate is greater than or equal to 40% and less than 60%) |  |  | 5 (Grade 5: the growth control rate is greater than or equal to 85%) |  |  | 5 (Grade 5: the growth control rate is greater than or equal to 85%) |  |  | 5 (Grade 5: the growth control rate is greater than or equal to 85%)
